Test results taken from PubChem BioAssay (NCI).
Several values for one entry are separate records, joined by “and”; a condition that tells them apart may be missing. Equal entries are not always repeated.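 Each compound was tested at five concentrations against cells in 96-well plates for 48 hours. GI50: concentration for 50% inhibition of growth. The concentration for full growth arrest is given as TGI.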

Assays:
Experiment in all cases: DTP human tumour cell line panel, 48 h
NCI/ADR-RES ovarian = system: NCI/ADR-RES ovarian
HOP-62 NSCLC = system: HOP-62 NSCLC
RXF 393 renal = system: RXF 393 renal
SW-620 colon = system: SW-620 colon
SNB-19 CNS = system: SNB-19 CNS
M14 melanoma = system: M14 melanoma
IGROV1 ovarian = system: IGROV1 ovarian
HT29 colon = system: HT29 colon
HL-60(TB) leukemia = system: HL-60(TB) leukemia
U251 CNS = system: U251 CNS

SMILES	TGI (NCI/ADR-RES ovarian)	GI50 (HOP-62 NSCLC) [µM]	TGI (HOP-62 NSCLC)	TGI (RXF 393 renal)	TGI (SW-620 colon)	TGI (SNB-19 CNS) [µM]	GI50 (M14 melanoma) [µM]	TGI (M14 melanoma)	TGI (IGROV1 ovarian)	TGI (HT29 colon)	GI50 (HL-60(TB) leukemia) [µM]	TGI (HL-60(TB) leukemia)	TGI (U251 CNS)	GI50 (NCI/ADR-RES ovarian) [µM]	GI50 (RXF 393 renal) [µM]	GI50 (SW-620 colon) [µM]	GI50 (SNB-19 CNS) [µM]	GI50 (IGROV1 ovarian) [µM]	GI50 (HT29 colon) [µM]	GI50 (U251 CNS) [µM]
Nc1ccn(C2O[C@H](CO)[C@@H](O)[C@@H]2O)c(=O)n1 (some centres not stated)	> 100 µM	64.3	> 100 µM	> 100 µM	> 100 µM	> 100	22.3	> 100 µM	> 100 µM	> 100 µM	> 100	> 100 µM	> 100 µM							
N#C/C(=C1C=C/C(=N/O)C(Br)=C/1)c1ccccc1	84.1 µM	2.25	13 µM	11.5 µM	10.8 µM	> 100	3.79	20 µM	12.2 µM	10.2 µM	2.16	6.31 µM	8.01 µM	2.61	3.01	0.637	8.7	2.16	3.3	2.44
O=C1c2c(c3c4ccccc4n(CCCCCCBr)c3c3[nH]c4ccccc4c23)C(=O)N1O	7.8 µM	2.52	9.06 µM	14.5 µM	14.3 µM	21.5	2.07	7.68 µM	9.38 µM	3.25 µM	2.08	4.63 µM	13.3 µM	2.49	3.32	3.56	4.98	2.13	1.73	3.47
COc1cccc(/C=N/NC(=O)c2ccccc2Nc2ccnc(C(F)(F)F)c2)c1O	27.9 µM	0.431	> 53.6 µM	28 µM	> 70.1 µM	> 100	0.375	> 23.2 µM	0.0745 µM	> 100 µM	0.215	0.677 µM	> 100 µM	0.512	0.728	0.918	2.41	0.0234	4.06	0.449
O=NN(Cc1ccc(Cl)cc1)C(C(=O)O)c1ccccc1 (configuration not stated)	> 100 µM		> 100 µM	> 100 µM	> 100 µM	> 100		> 100 µM	> 100 µM	> 100 µM		> 100 µM	> 100 µM							
CCOC(=O)/C=C(/C(=O)OCC)n1cc(Cl)c(=O)n(CC(=O)OCC)c1=O	25 µM and 97.7 µM	30.8	25 µM and 91.3 µM	8.55 µM and 2.59 µM	4.45 µM and 12.9 µM	> 100	18	10.4 µM and 40.2 µM	9.25 µM and 37.1 µM	9.38 µM and 52 µM	11.2	9.97 µM and 37.2 µM	13.6 µM and 38.9 µM		0.298	3.04	32.7	17.8	22.5	21
CCNCCNc1cc(-c2ccc(C(=O)OC)cc2)c(C#N)c2nc3ccccc3n12	> 100 µM	2.48	9.46 µM	2.85 µM	2.67 µM	> 100	1.58	3.23 µM	> 100 µM	4.47 µM	1.11	2.93 µM	3.11 µM	2.8	1.42	0.488	4.57	2.38	1.6	1.53
CC1OC(O[C@H]2C[C@@H](O)[C@]3(CO)[C@H]4[C@H](O)C[C@]5(C)[C@@H](C6=CC(=O)OC6)CC[C@]5(O)[C@@H]4CC[C@]3(O)C2)C(O)C(O)C1O (some centres not stated)	39.9 µM	21.7	51.9 µM	75.6 µM	48.7 µM	33.6	27.7	87.5 µM	36.7 µM	36 µM	21	41.6 µM	33.7 µM	19.5	27.5	22.5	18.3	19.7	19.5	18.8
COC(=O)CCCCN=Cc1c(O)c(O)c(C(C)C)c2cc(C)c(-c3c(C)cc4c(C(C)C)c(O)c(O)c(C=NCCCCC(=O)OC)c4c3O)c(O)c12	> 32.5 µM	1.22	9.21 µM	3.18 µM	> 32.5 µM	> 32.5	1.23	13.5 µM	> 32.5 µM	17.1 µM	1.13	22.8 µM	4.05 µM	2.32	0.596	1.27	0.713	1.41	0.978	0.58
Cc1cc(I)cc(CNCCCN2CCSCC2)c1O	36.6 µM	14.3	28.3 µM	24.1 µM	30.3 µM	41	13.9	28.4 µM	29.7 µM	27.8 µM	15.8	35.8 µM	31 µM	18.1	11.1	16.5	18.4	13.8	14	16.4
COc1cnc2cc(C(=O)O)c3c([N+](=O)[O-])cccc3c2c1	> 100 µM		> 100 µM	> 100 µM	> 100 µM	> 100		> 100 µM	> 100 µM	> 100 µM		> 100 µM	> 100 µM							
Cc1cc(N(CCOS(C)(=O)=O)CCOS(C)(=O)=O)ccc1C=Nc1ccc(-c2nc(Cc3ccccc3)sc2C)cc1	47.8 µM		20.8 µM	4.92 µM	45.4 µM	43.9		20.7 µM	28 µM	21.4 µM		28.9 µM	22.8 µM							
O=c1oc2ccc(F)cc2c(=O)n1-c1ccc(F)cc1F	> 100 µM	2.39	8.05 µM	6.99 µM	80.6 µM	> 100	2.47	8.04 µM	> 100 µM	49.8 µM	2.68	7.81 µM	38.8 µM	3.24	2.52	3.33	3.5	3.01	3.91	3.26
